Among the data in patent US11718612B2, “Inhibitors of receptor interacting protein kinase I for the treatment of disease” (Board of Regents, The University of Texas System, priority 2019, dated 2023) are IC50 values, retold here.

As usually defined, the IC50 is the point on the concentration scale where inhibition reaches its midpoint.

One assay has as its system U937 cells. Put plainly: Human U937 cellular necroptosis assay. Format: cell-based. The conditions noted are these: U-937; U937 cells stimulated with 25 ng/mL human TNFalpha and 25 μM z-VAD-FMK; 22 hr; Cell Titer-Glo viability. A general note: ATP-based viability assays read luminescence as a measure of living cells.
The next assay has as its target RIPK1 (Homo sapiens (Human), UniProt Q13546). Put plainly: ADP-Glo kinase assay, RIPK1 activity. Format: biochemical. The conditions noted are these: 5 nM RIPK1, 50 μM ATP, 6 hr reaction. The protocol:
In order to measure RIPK1 activity the ADP-Glo kinase assay (Promega, Catalog #V7002) was used to measure the conversion of ATP to ADP. This enzymatic assay was performed in a 384-well white, Optiplate (Perkin Elmer, Catalog #6007299) with assay buffer consisting of 50 mM HEPES pH 7.5 (Gibco, Catalog #15630-080), 50 mM NaCl (Teknova, Catalog #S0252), 30 mM MgCl2 (Ambion, Catalog #AM9530G), 1 mM DTT (Santa Cruz Biotechnology, Catalog #sc-29089), 0.05% BSA (Sigma, Catalog #A3059-50G) and 0.02% CHAPS (Sigma, Catalog #C5070-5G). Stock solutions of the test compounds were prepared in 100% DMSO (Sigma, Catalog #D2650) and serially diluted 1:3 using 100% DMSO. Compounds were additionally diluted 1:40 in assay buffer, and 2 μL/well were transferred to the assay plate. 4 μL/well (final concentration of 5 nM) of RIPK1 protein (SignalChem, Catalog #R07-11G-05) diluted in assay buffer and added to the assay plate followed by a 10 minute preincutation at room temperature. 4 μL/well of ATP (Promega, Catalog #V7002) (final concentration of 50 μM) diluted in assay buffer were then added to the assay plate followed by a 6 hr reaction time. Final concentrations of RIPK1 and ATP refer to a 10 μL volume. Luminescence was measured using a BioTek Synergy™ NEO plate reader. IC50 values were calculated using a four-parameter logistic curve fit using Genedata Screener software.
A general note: ADP-Glo first removes unused ATP, then detects ADP through luciferase.

Chain of RIPK1 (Q13546 1-327): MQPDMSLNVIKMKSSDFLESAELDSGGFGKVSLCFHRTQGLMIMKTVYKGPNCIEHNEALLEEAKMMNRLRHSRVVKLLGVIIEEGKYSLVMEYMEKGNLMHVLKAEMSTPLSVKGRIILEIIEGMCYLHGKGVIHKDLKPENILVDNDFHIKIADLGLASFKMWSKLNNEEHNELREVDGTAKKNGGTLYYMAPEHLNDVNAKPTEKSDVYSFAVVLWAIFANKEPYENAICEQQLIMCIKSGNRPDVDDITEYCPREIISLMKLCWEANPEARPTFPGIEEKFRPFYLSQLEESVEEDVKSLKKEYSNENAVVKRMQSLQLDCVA

As to `O=C(Nc1cccc(Cl)c1F)c1ncn(Cc2ncccc2F)n1` [Example 102, N-(3-chloro-2-fluorophenyl)-1-((3-fluoropyridin-2-yl)methyl)-1H-1,2,4-triazole-3-carboxamide], the IC50 in the assay on U937 cells is 1260 nM; on RIPK1 it was 0.195 µM.
